#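 The compound was tested at five concentrations on cells cultured in 96-well plates, with a 48-hour exposure period. GI50: concentration for 50% inhibition of growth.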 The source made the active and inactive calls. Cut-off read from the data, not from the text of the source: active = GI50 up to about 1.1 µM and inactive = higher.
# Experiments:
# Experiment in all cases: NCI tumour cell line growth inhibition, 48 h
# SNB-75 = test system: SNB-75
# HOP-62 = test system: HOP-62
# SN12C = test system: SN12C
# SR = test system: SR
# OVCAR-4 = test system: OVCAR-4
# SW-620 = test system: SW-620
# HCT-15 = test system: HCT-15
# A498 = test system: A498
# M14 = test system: M14
# OVCAR-5 = test system: OVCAR-5
# EKVX = test system: EKVX
# UACC-257 = test system: UACC-257
# OVCAR-8 = test system: OVCAR-8
# SF-539 = test system: SF-539
# SF-268 = test system: SF-268
# OVCAR-3 = test system: OVCAR-3
SMILES,GI50 (SNB-75),GI50 (HOP-62),GI50 (SN12C),GI50 (SR),GI50 (OVCAR-4),GI50 (SW-620),GI50 (HCT-15),GI50 (A498),GI50 (M14),GI50 (OVCAR-5),GI50 (EKVX),GI50 (UACC-257),GI50 (OVCAR-8),GI50 (SF-539),GI50 (SF-268),GI50 (OVCAR-3)
[O-][Cl+3]([O-])([O-])O.c1ccc(/N=c2\nc(N3CCOCC3)ss2)cc1,19.9 µM (inactive),41.3 µM (inactive),15.1 µM (inactive),16.6 µM (inactive),15.7 µM (inactive),10.2 µM (inactive),15.5 µM,27.7 µM (inactive),14.7 µM (inactive),28.9 µM (inactive),21 µM (inactive),15.8 µM (inactive),15 µM (inactive),18.3 µM (inactive),16 µM (inactive),–
CC(=O)OCc1c2ccccc2c(C)c2c1cc(F)c1ccccc12,22.9 µM (inactive),45.6 µM (inactive),15.1 µM (inactive),12.6 µM (inactive),24.2 µM (inactive),20.5 µM (inactive),–,39 µM (inactive),34 µM (inactive),42.7 µM (inactive),34.4 µM (inactive),> 100 µM (inactive),18.9 µM (inactive),23.8 µM (inactive),29.8 µM (inactive),22.9 µM (inactive)
CC(=O)C(CN(C(C)C)C(C)C)C(c1ccccc1)c1c(O)c2ccccc2oc1=O (stereo not given),16.7 µM (inactive),> 100 µM (inactive),> 100 µM (inactive),> 100 µM (inactive),> 100 µM (inactive),> 100 µM (inactive),> 100 µM,> 100 µM (inactive),> 100 µM (inactive),> 100 µM (inactive),> 100 µM (inactive),> 100 µM (inactive),> 100 µM (inactive),> 100 µM (inactive),> 100 µM (inactive),> 100 µM (inactive)
CCOC(=O)CCC(=O)C1c2cccc(O)c2C(=O)c2c(O)cc(C)cc21 (stereo not given),0.578 µM (active),0.656 µM (active),1.79 µM (inactive),0.743 µM (active),0.569 µM (active),0.948 µM (active),0.826 µM,2.28 µM (inactive),1.4 µM (inactive),0.706 µM (active),1.82 µM (inactive),1.41 µM (inactive),0.764 µM (active),0.226 µM (active),0.542 µM (active),0.533 µM (active)
COc1ccc(Cn2c(C)nc3c2C(=O)c2ccccc2C3=O)cc1,11.2 µM (inactive),11.6 µM (inactive),13.9 µM (inactive),1.44 µM (inactive),15.5 µM (inactive),8.07 µM (inactive),1.72 µM,–,11.6 µM (inactive),–,13.8 µM (inactive),10.4 µM (inactive),7.01 µM (inactive),3.81 µM (inactive),4.49 µM (inactive),9.84 µM (inactive)
Cc1ccc(S(=O)OC23CC4CC(CC(C4)C2)C3)cc1 (stereo not given),69.5 µM (inactive),> 100 µM (inactive),> 100 µM (inactive),35.7 µM (inactive),> 100 µM (inactive),84.1 µM (inactive),> 100 µM,> 100 µM (inactive),> 100 µM (inactive),> 100 µM (inactive),> 100 µM (inactive),> 100 µM (inactive),> 100 µM (inactive),> 100 µM (inactive),86.1 µM (inactive),> 100 µM (inactive)
COC(=O)C(=O)C(CC(=O)Nc1cc(Cl)ccc1Cl)C(=O)OC (stereo not given),> 100 µM (inactive),> 100 µM (inactive),> 100 µM (inactive),> 100 µM (inactive),> 100 µM (inactive),> 100 µM (inactive),> 100 µM,> 100 µM (inactive),> 100 µM (inactive),> 100 µM (inactive),> 100 µM (inactive),> 100 µM (inactive),> 100 µM (inactive),> 100 µM (inactive),> 100 µM (inactive),> 100 µM (inactive)
Cc1cccc2c1c1ccc3c(c1n2C)C(=O)C=CC3=O,19.5 µM (inactive),19 µM (inactive),6.17 µM (inactive),1.43 µM (inactive),11.8 µM (inactive),2.03 µM (inactive),5.18 µM,27.4 µM (inactive),6.22 µM (inactive),15.9 µM (inactive),18.9 µM (inactive),11.4 µM (inactive),5.37 µM (inactive),4.56 µM (inactive),14 µM (inactive),2.05 µM (inactive)
O=S1(=O)N2CN3CN(C2)CN1C3,28.8 µM (inactive),234 µM (inactive),34.9 µM (inactive),–,28.7 µM (inactive),23.7 µM (inactive),23.2 µM,223 µM (inactive),36.2 µM (inactive),208 µM (inactive),370 µM (inactive),30.1 µM (inactive),> 86.5 µM (inactive),> 100 µM (inactive),> 58.3 µM (inactive),> 10 µM (inactive)
C=C(c1ccccc1)[C@@]1(O)CCCC[C@H]1NC(c1ccccc1)c1ccccc1,28.2 µM (inactive),15.1 µM (inactive),14 µM (inactive),1.7 µM (inactive),14.1 µM (inactive),14.4 µM (inactive),10.9 µM,13.9 µM (inactive),14 µM (inactive),13.6 µM (inactive),15.3 µM (inactive),10.5 µM (inactive),13.8 µM (inactive),15.9 µM (inactive),13.6 µM (inactive),12.1 µM (inactive)
COc1ccc(C2=C(Cl)c3cc(OC)c(OC)cc3C2)cc1OC,> 100 µM (inactive),> 100 µM (inactive),> 100 µM (inactive),> 100 µM (inactive),> 100 µM (inactive),> 100 µM (inactive),> 100 µM,34.9 µM (inactive),> 100 µM (inactive),–,> 100 µM (inactive),> 100 µM (inactive),> 100 µM (inactive),> 100 µM (inactive),> 100 µM (inactive),–
Cc1ccc(/C=N\NC2c3cc(Cl)ccc3Nc3nc(O)nc(C)c32)cc1 (stereo not given),> 100 µM (inactive),> 100 µM (inactive),65.3 µM (inactive),7.29 µM (inactive),–,67.8 µM (inactive),–,–,57.1 µM (inactive),–,> 100 µM (inactive),88.9 µM (inactive),72.6 µM (inactive),> 100 µM (inactive),> 100 µM (inactive),> 100 µM (inactive)
COc1cc(/C=C2\[C@@H]3NC(Cc4c(OC)c(C)c(OC)c(OC)c43)C(=O)N2Cc2ccccc2)c(OC)c(C)c1OC,27.7 µM (inactive),54.1 µM (inactive),40.3 µM (inactive),25 µM (inactive),32.3 µM (inactive),68.9 µM (inactive),–,30.9 µM (inactive),31.3 µM (inactive),41.3 µM (inactive),29.4 µM (inactive),34.7 µM (inactive),36.1 µM (inactive),66.4 µM (inactive),59.3 µM (inactive),31.7 µM (inactive)
COc1ccc(CCNCc2cccc(OC)c2OC)cc1OC,> 100 µM (inactive),> 100 µM (inactive),> 100 µM (inactive),–,> 100 µM (inactive),> 100 µM (inactive),> 100 µM,–,> 100 µM (inactive),> 100 µM (inactive),> 100 µM (inactive),> 100 µM (inactive),> 100 µM (inactive),–,> 100 µM (inactive),> 100 µM (inactive)
COC(=O)C1=C(c2cc(OC)c(OC)c(OC)c2)OC(c2cc(OC)c(OC)c(OC)c2)C1 (stereo not given),23.7 µM (inactive),37.8 µM (inactive),19.2 µM (inactive),18 µM (inactive),12 µM (inactive),34.4 µM (inactive),22.7 µM,24.1 µM (inactive),20.5 µM (inactive),33.3 µM (inactive),–,23.9 µM (inactive),32.1 µM (inactive),34.4 µM (inactive),46.2 µM (inactive),22.1 µM (inactive)
Cc1ccc(N2C(=O)/C(=C3\Sc4c(nc(C)n(C)c4=O)N3c3ccccc3)SC2=S)cc1,28.6 µM (inactive),–,43.4 µM (inactive),> 100 µM (inactive),76.9 µM (inactive),> 100 µM (inactive),> 100 µM,30.1 µM (inactive),> 100 µM (inactive),> 100 µM (inactive),> 100 µM (inactive),> 100 µM (inactive),27.9 µM (inactive),15.3 µM (inactive),34.6 µM (inactive),–
CCOC(=O)COc1ccccc1/C=C1\CCC(CN(C)C)C1=O (stereo not given),15.9 µM (inactive),20.6 µM (inactive),5.96 µM (inactive),–,16.5 µM (inactive),2.55 µM (inactive),3.24 µM,17.2 µM (inactive),8.71 µM (inactive),17.9 µM (inactive),13.8 µM (inactive),5.66 µM (inactive),4.2 µM (inactive),11.9 µM (inactive),5.45 µM (inactive),7.82 µM (inactive)
Nc1ccc(C(=O)NN2C(=O)C(Cl)C2c2ccc(O)cc2)cc1 (stereo not given),26.5 µM (inactive),21.7 µM (inactive),20.1 µM (inactive),–,19.1 µM (inactive),23.3 µM (inactive),21.4 µM,36 µM (inactive),17.5 µM (inactive),21.7 µM (inactive),16.6 µM (inactive),36.1 µM (inactive),26.5 µM (inactive),19.1 µM (inactive),13.4 µM (inactive),15 µM (inactive)
CC(=O)N1CCN(c2ccc(OCC3COC(Cn4ccnc4)(c4ccc(Cl)cc4Cl)O3)cc2)CC1 (stereo not given) [KETOCONAZOLE],–,39.4 µM (inactive),52.4 µM (inactive),20.2 µM (inactive),39.1 µM (inactive),48 µM (inactive),25.8 µM,37 µM (inactive),22.4 µM (inactive),30.3 µM (inactive),–,20.7 µM (inactive),26.7 µM (inactive),–,–,28.1 µM (inactive)
